Assay results reported in patent publication US5731334A, “Method for treating cancer using taxoid onium salt prodrugs” (priority 1995, dated 1998).
pIC50: −log10 of the molar value.

How the values were obtained:
[1] = tested on: BT-549 breast carcinoma cells; assay: XTT dye binding cytotoxicity assay, BT-549; format: cell-based; conditions: Homo sapiens; BT-549, breast carcinoma; 72 h; read-out: IC50
Method: (§1) All cell lines described herein were obtained from the ATCC and maintained in media formulations as recommended by the supplier. The cell lines were tested for mycoplasma contamination prior to incubation at 37° C. in 5% carbon dioxide. Normal human dermal fibroblasts, peripheral blood lymphoblasts and mammary epithelial cells were obtained from Clonogenic Cor., San Diego, Calif. and were maintained under the above incubation conditions in special media provided by the supplier.
(§2) Antiproliferative activities of the onium salts were determined using the XTT dye binding assay. Cells were harvested with trypsin/EDTA (Irvine Scientific), washed, resuspended in the appropriate medium, and counted in a hemocytometer using Trypan Blue to determine viability. Then 10^4 cells/well were added to 96 well microtiter plates and incubated for 24 hours before addition of drug at concentrations in the range of 10^-4 to 10^-13 molar by direct addition from DMSO solutions. After 72 hours, XTT binding dye was added and incubation was continued for 4 hours. The inhibition of cell proliferation was quantified using a Molecular Devices Microplate Reader. The absorbance of XTT was measured at […]. The concentration of drug which inhibited growth of cells by 50% was calculated from duplicated determinations.

[2] = tested on: Capan 1 pancreas cancer cells; assay: XTT dye binding cytotoxicity assay, Capan 1; format: cell-based; conditions: Homo sapiens; Capan 1, pancreas cancer; 72 h; read-out: IC50
Method: as §1, §2

[3] = tested on: OVCAR-3 ovarian carcinoma cells; assay: XTT dye binding cytotoxicity assay, OVCAR-3; format: cell-based; conditions: Homo sapiens; OVCAR-3, ovarian carcinoma; 72 h; read-out: IC50
Method: as §1, §2

[4] = tested on: SIHA squamous carcinoma cells; assay: XTT dye binding cytotoxicity assay, SIHA; format: cell-based; conditions: Homo sapiens; SIHA, squamous carcinoma; 72 h; read-out: IC50
Method: as §1, §2

[5] = tested on: Molt-4 T-cell leukemia cells; assay: XTT dye binding cytotoxicity assay, Molt-4; format: cell-based; conditions: Homo sapiens; Molt-4, T-cell leukemia; 72 h; read-out: IC50
Method: as §1, §2

[6] = tested on: HMEC mammary epithelial cells; assay: XTT dye binding cytotoxicity assay, HMEC; format: cell-based; conditions: Homo sapiens, mammary epithelial cells (untransformed), 72 h, read-out: IC50
Method: as §1, §2

[7] = tested on: NHDF dermal fibroblast; assay: XTT dye binding cytotoxicity assay, NHDF; format: cell-based; conditions: Homo sapiens, dermal fibroblast (untransformed), 72 h, read-out: IC50
Method: as §1, §2

[8] = tested on: tubulin; assay: Tubulin polymerization-depolymerization (microtubule assembly-disassembly) assay; format: biochemical, calf
[9] = In vivo elimination in BALB/C mice; conditions: 24 hours after injection
Method: C-2'-MPA-Taxol (1 mM in 0.9% saline solution, 400 μL) was injected along with tritiated taxol at 32000 cpm into normal BALB/C mice (4 mice each) housed in metabolic cages and the urine and feces were measured periodically in a scintillation counter using Achillea scintillation fluid.
The antitumor activity of the onium salts of taxol were assessed in nude mice bearing tumors of human A-549 lung adenocarcinomas, Ovcar-3 ovarian carcinoma, and PC-3 prostate carcinoma cells. […] FIG. 5 illustrates antiproliferation results for 2'-MPA-3-thiophene-taxol (4) and 2' MPA taxol (2) for the Ovcar-3 human tumor xenograft. […] FIG. 6, summarizes the results for a PC-3, prostate tumor model study. Taxol was compared with both the 2'- and 7-substituted oxonium salts. […] Tritiated taxol and 2' MPA-taxol were used in drug elimination experiments in normal BALB/C mice. In both groups of mice of four animals each, only 4-5% of the administered radioactivity was measured in the combined urine and feces 24 hours after injection.

[10] = tested on: PC-3 prostate carcinoma tumor xenograft; conditions: in vivo
Method: Athymic nude mice were purchased from Harlan-Sprague-Dawley. The animals were housed in microisolated cases under positive air pressure and all manipulations and drug treatments were performed in a laminar flow cabinet. Tumor cells were grown under the above tissue culture conditions. Cell suspensions in RPMI medium were injected S./C. Treatment was started one day after inoculation by i.p. injection of 400 μl drug solutions. Tumors were measured 3 times weekly in two dimensions, using calipers and tumor volume as calculated using the formula (V=w^2 ×L×(3.142).
The tumor model was generated from an ATTC PC-3 prostate carcinoma cell line that was maintained under standard cell proliferation conditions, viz. 37° C., 5% carbon dioxide in sterile air. Each cohort was comprised of eight randomly chosen female athymic nude mice, for a total population size of twenty four. Hemocytometer counted cells, suspended in Hanks mediun (Gibco, Grand Island N.Y.) were implanted S.C. (10^6 cells in 0.4 mL per mouse). Solid tumor growth was measured on each third day. Equimolar amounts of the test compounds (1.0 mM, 400 μL) were injected i.p. on days 1, 3, 5, 7, 9, and 11 using the following media:
(.smallcircle.): Control, 5% dextrose in 5× distilled water (5 DW)
(Δ): Taxol (18.0 mg/kg of animal weight or approximately 1.260 mg/m^2) suspended in Cremaphor/D5W
Inferences about efficacy were drawn by ANOVA followed by protected t-test. […] Data shown as mean value with standard error.

`CC(=O)O[C@H]1C(=O)[C@@]2(C)[C@H]([C@H](OC(=O)c3ccccc3)[C@]3(O)C[C@H](OC(=O)[C@H](Oc4cccc[n+]4C)[C@@H](NC(=O)c4ccccc4)c4ccccc4)C(C)=C1C3(C)C)[C@]1(OC(C)=O)CO[C@@H]1C[C@@H]2O` [Compound 2] showed a pIC50 [1] of 8.24, a pIC50 [2] of 8.24 and a pIC50 [3] of 8.13. For the same compound, the pIC50 [4] was 8.42, the pIC50 [5] was 8.15 and the pIC50 [6] was 6.90. The pIC50 [7] was 6.42, the “tubulin binding in words” value [8] was “no tubulin binding” and the “reversal to tubulin (calcium induced depolymerization)” value ([8]; CaCl2, 10^-6 M drug) was “about 70%”. The “administered radioactivity in the combined urine and feces” value [9] was 4-5% and the “mice surviving treatment, PC-3” value [10] was “all of the mice given either the 2'- or 7-isomers survived”.
